Measurements as given in US20200061007A1, “CANCER STEM CELL PROLIFERATION INHIBITOR” (NATIONAL INSTITUTE OF ADVANCED INDUSTRIAL SCIENCE AND …, priority 2014, published 2020).

How the values were obtained:
[1] = tested on: human breast cancer cell line MCF-7; assay: Tumor volume, MCF-7/nude mice; format: in vivo
Description: (§1) A tumor piece of a human breast cancer cell line MCF-7 containing cells positive for cancer stem cell markers was subcutaneously transplanted to the dorsal part of each of 6-week-old female BALB/cAJc1-nu nude mice (5 mice/group) using a trocar needle. At the time when the tumor volume reached 100 to 200 mm^3, the administration was started. Am80 was orally administered once a day at a dose of 1 mg/kg for 21 continuous days, and DXL was intravenously administered at a dose of 3.5 mg/kg from Day 1, 3 times at intervals of 4 days. In the combination group, the agents were administered at the same doses as, and by the same administration methods as, those in the cases of administration of each single agent. Measurement of the tumor diameter was carried out until the next day of the completion of the administration (Day 22). The longitudinal diameter and the transverse diameter of the tumor were measured using a caliper, and the tumor volume (mm^3) was determined according to the following formula: longitudinal diameter×transverse diameter^2/2. In the control group, physiological saline was intraperitoneally administered from Day 1, 3 times at intervals of 4 days.

[2] = tested on: human prostate cancer cell line LNCaP; assay: Tumor volume, LNCaP/nude mice; format: in vivo
Description: as §1, with “prostate” for “breast”, “LNCaP” for “MCF-7”, “(4” for “(5”, “5” for “3.5”

[3] = tested on: human pancreatic cancer cells MIA-Paca2; assay: Tumor volume, MIA-Paca2/nude mice; format: in vivo
Description: A tumor piece of human pancreatic cancer cells MIA-Paca2 containing cells positive for cancer stem cell markers was subcutaneously transplanted to the dorsal part of each of 6-week-old female BALB/cAJc1-nu nude mice (4 mice/group, 5 mice only for the control group) using a trocar needle. At the time when the tumor volume reached 100 to 200 mm^3, the administration was started. Am80 was orally administered once a day at a dose of 2 mg/kg for 21 continuous days, and DXL was intravenously administered at a dose of 5 mg/kg from Day 1, 3 times at intervals of 4 days. In the combination group, the agents were administered at the same doses as, and by the same administration methods as, those in the cases of administration of each single agent. Measurement of the tumor diameter was carried out until the next day of the completion of the administration (Day 22). Based on the measured values of the longitudinal diameter and the transverse diameter, the tumor volume (mm^3) was determined according to the following formula: longitudinal diameter×transverse diameter^2/2. In the control group, physiological saline was intraperitoneally administered from Day 1, 3 times at intervals of 4 days.

[4] = tested on: Human Leukemia Cell Line Kasumi-1; assay: Growth inhibition of Kasumi-1, isobologram; format: cell-based; conditions: Kasumi-1, RPMI1640 with 20% FBS
Description: A human leukemia cell line Kasummi-1, containing cells positive for cancer stem cell markers, was cultured in RPMI1640 medium supplemented with 20% FBS, and the growth inhibitory action by the combination of Am80 and 5-AZ was studied using Isobologram. […] These concentrations were taken as 1.0, and the points corresponding to 1.0 in the two axes were connected to each other via a straight line. In cases where the ratio observed for the combination effect is on the line, the effect is additive, and, in cases where the ratio is below the line, the effect is synergistic.

[5] = tested on: human prostate cancer cell line LNCaP; assay: Growth inhibition of LNCaP in vitro; format: cell-based; conditions: 96 hours of exposure, RPMI1640 with 10% FBS
Description: A human prostate cancer cell line LNCaP, containing cells positive for cancer stem cell markers, was cultured in RPMI1640 medium supplemented with 10% FBS, and the growth inhibitory action by the combination of Am80 and 5-AZ was studied. […] Thus, in order to study the growth inhibitory action, Am80 was used within the concentration range of 0.125 μM to 1 μM with a common ratio of 2, and 5-AZ was used within the concentration range of 1.56 μM to 12.5 μM with a common ratio of 2. In cases of use of these agents in combination, the growth inhibitory action was studied using these concentrations.

[6] = tested on: human breast cancer cell line MCF-7; assay: Growth inhibition of MCF-7 in vitro; format: cell-based; conditions: MCF-7, 96 hours of exposure, RPMI1640 with 2% FBS
Description: A human breast cancer cell line MCF-7, containing cells positive for cancer stem cell markers, was cultured in RPMI1640 medium supplemented with 2% FBS, and the growth inhibitory action by the combination of Am80 and 5-AZ was studied. The IC50 values of the agents determined by 96 hours of the exposure were 1 μM and 20 μM, respectively. Thus, in order to study the growth inhibitory action, Am80 was used within the concentration range of 0.125 μM to 1 μM with a common ratio of 2, and 5-AZ was used within the concentration range of 2.5 μM to 20 μM with a common ratio of 2. In cases of use of these agents in combination, the growth inhibitory action was studied using these concentrations.

With `CC(=O)O[C@@]12CO[C@@H]1C[C@H](O)[C@@]1(C)C(=O)[C@H](O)C3=C(C)[C@@H](OC(=O)[C@H](O)[C@@H](NC(=O)OC(C)(C)C)c4ccccc4)C[C@@](O)([C@@H](OC(=O)c4ccccc4)[C@H]21)C3(C)C` [DXL, Docetaxel] the “tumor volume Day 1” value ([1]; Am80 1 mg/kg oral daily 21 days, DXL 3.5 mg/kg i.v. 3 times at intervals of 4 days, Day 1) was 143.5 mm^3, the “tumor volume Day 5” value ([1]; Am80 1 mg/kg oral daily, DXL 3.5 mg/kg i.v., Day 5) was 121.5 mm^3 and the “tumor volume Day 9” value ([1]; Am80 1 mg/kg oral daily, DXL 3.5 mg/kg i.v., Day 9) was 110.0 mm^3. For the same compound, the “tumor volume Day 13” value ([1]; Am80 1 mg/kg oral daily, DXL 3.5 mg/kg i.v., Day 13) was 83.3 mm^3, the “tumor volume Day 17” value ([1]; Am80 1 mg/kg oral daily, DXL 3.5 mg/kg i.v., Day 17) was 66.5 mm^3 and the “tumor volume Day 22” value ([1]; Am80 1 mg/kg oral daily, DXL 3.5 mg/kg i.v., Day 22) was 71.3 mm^3. The “tumor volume Day 1” value ([2]; Am80 1 mg/kg oral daily 21 days, DXL 5 mg/kg i.v. 3 times at intervals of 4 days, Day 1) was 126.7 mm^3, the “tumor volume Day 5” value ([2]; Am80 1 mg/kg oral daily, DXL 5 mg/kg i.v., Day 5) was 111.3 mm^3 and the “tumor volume Day 9” value ([2]; Am80 1 mg/kg oral daily, DXL 5 mg/kg i.v., Day 9) was 90.7 mm^3. For the same compound, the “tumor volume Day 13” value ([2]; Am80 1 mg/kg oral daily, DXL 5 mg/kg i.v., Day 13) was 73.7 mm^3, the “tumor volume Day 17” value ([2]; Am80 1 mg/kg oral daily, DXL 5 mg/kg i.v., Day 17) was 72.5 mm^3 and the “tumor volume Day 22” value ([2]; Am80 1 mg/kg oral daily, DXL 5 mg/kg i.v., Day 22) was 70.2 mm^3. For the same compound, the “tumor volume Day 1” value ([3]; Am80 2 mg/kg oral daily 21 days, DXL 5 mg/kg i.v. 3 times at intervals of 4 days, Day 1) was 136.7 mm^3, the “tumor volume Day 5” value ([3]; Am80 2 mg/kg oral daily, DXL 5 mg/kg i.v., Day 5) was 151.3 mm^3 and the “tumor volume Day 9” value ([3]; Am80 2 mg/kg oral daily, DXL 5 mg/kg i.v., Day 9) was 135.7 mm^3. For the same compound, the “tumor volume Day 13” value ([3]; Am80 2 mg/kg oral daily, DXL 5 mg/kg i.v., Day 13) was 93.7 mm^3, the “tumor volume Day 17” value ([3]; Am80 2 mg/kg oral daily, DXL 5 mg/kg i.v., Day 17) was 76.3 mm^3 and the “tumor volume Day 22” value ([3]; Am80 2 mg/kg oral daily, DXL 5 mg/kg i.v., Day 22) was 77.3 mm^3.
`Nc1ncn([C@@H]2O[C@H](CO)[C@@H](O)[C@H]2O)c(=O)n1` [5-AZ, Azacytidine] gave an IC50 [4] of 8.4 µM, an IC50 [5] of 25 µM and an IC50 [6] of 20 µM.
